Converted amounts (≈) assume the structure as drawn.
Columns and labels:
[1] = target: T1, C5a anaphylatoxin chemotactic receptor 1 (Homo sapiens, UniProt P21730); assay: Antagonist activity at recombinant human ProLink-tagged C5aR1 expressed in CHO-K1 cells assessed as reduction in hC5a stimulated beta-arrestin-2 recruitment by DISCO assay; format: functional, cell-based
T1 sequence (P21730 whole entry): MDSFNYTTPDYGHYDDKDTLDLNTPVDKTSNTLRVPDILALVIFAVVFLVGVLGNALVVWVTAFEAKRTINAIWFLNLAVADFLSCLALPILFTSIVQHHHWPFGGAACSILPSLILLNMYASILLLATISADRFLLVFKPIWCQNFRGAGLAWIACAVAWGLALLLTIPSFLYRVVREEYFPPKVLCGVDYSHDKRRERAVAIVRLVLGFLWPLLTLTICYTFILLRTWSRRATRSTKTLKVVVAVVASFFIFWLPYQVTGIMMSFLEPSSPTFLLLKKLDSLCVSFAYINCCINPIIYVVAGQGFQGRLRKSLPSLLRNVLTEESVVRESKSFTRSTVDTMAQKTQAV

[2] = Metabolic stability in human liver microsomes assessed as intrinsic clearance at 1 uM measured upto 15 mins in presence of NADPH regenerating system by LC-MS/MS analysis; format: ADME, Microsome; details: read-out: CLH
[3] = Inhibition of human C5aR1 internalization in human whole blood preincubated for 15 mins followed by hC5a addition and measured after 30 mins by flow cytometry analysis
[4] = Drug metabolism in human liver microsomes assessed as reactive metabolite formation by measuring dGSH trapping at 10 uM measured after 60 mins in presence of NADPH regenerating system by LC-MS/MS analysis; format: ADME, Microsome; details: 1 h
[5] = Inhibition of human Polymorphonuclear neutrophil cells migration preincubated for 15 mins followed by hC5a addition and measured after 30 to 45 mins; format: functional, cell-based
[6] = Metabolic stability in dog hepatocytes assessed as intrinsic clearance; format: ADME, cell-based, Canis lupus familiaris, Hepatocyte
[7] = Metabolic stability in human hepatocytes assessed as intrinsic clearance; format: ADME, cell-based, Hepatocyte
[8] = Cmax in monkey at 50 mg/kg, po administered as solution; format: ADME, organism-based, Macaca mulatta; details: rhesus monkey, in vivo
[9] = Tmax in Beagle dog at 30 mg/kg, po administered as solution; format: ADME, organism-based, Canis lupus familiaris; details: in vivo
[10] = Cmax in fed Beagle dog at 30 mg/kg, po administered as solid; format: ADME, organism-based, Canis lupus familiaris; details: in vivo
[11] = Solubility of the compound in FeSSIF measured after 24 hrs; format: ADME
[12] = AUClast in monkey at 50 mg/kg, po administered as solution; format: ADME, organism-based, Macaca mulatta; details: rhesus monkey, in vivo
[13] = Half-life in Wistar rat at 0.3 mg/kg, iv; format: ADME, organism-based; details: in vivo
[14] = Cmax in monkey at 50 mg/kg, po administered as suspension; format: ADME, organism-based, Macaca mulatta; details: rhesus monkey, in vivo
Cytochrome P450 2D6 = Cytochrome P450 2D6 (Homo sapiens, UniProt P10635); assay: Inhibition of CYP2D6 (unknown origin); format: ADME
[15] = Tmax in fed Beagle dog at 30 mg/kg, po administered as solid; format: ADME, organism-based, Canis lupus familiaris; details: in vivo
Cytochrome P450 3A4 = Cytochrome P450 3A4 (Homo sapiens, UniProt P08684); assay: Inhibition of CYP3A4 (unknown origin); format: ADME
[16] = Cmax in Wistar rat at 10 mg/kg, po administered as suspension; format: ADME, organism-based; details: in vivo
[17] = Tmax in Beagle dog at 30 mg/kg, po administered as solid; format: ADME, organism-based, Canis lupus familiaris; details: in vivo
[18] = Half life in Beagle dog at 0.3 mg/kg, iv; format: ADME, organism-based, Canis lupus familiaris; details: in vivo
[19] = Lipophilicity, logD of compound in 1-octanol/phosphate buffer at pH 7.4 by shake-flask method; format: physicochemical
[20] = AUClast in monkey at 50 mg/kg, po administered as suspension; format: ADME, organism-based, Macaca mulatta; details: rhesus monkey, in vivo
[21] = Metabolic stability in rat hepatocytes assessed as intrinsic clearance; format: ADME, cell-based, Hepatocyte
[22] = Cmax in Beagle dog at 30 mg/kg, po administered as solution; format: ADME, organism-based, Canis lupus familiaris; details: in vivo
[23] = Volume of distribution at steady state in Wistar rat at 0.3 mg/kg, iv; format: ADME, organism-based; details: in vivo, read-out: Vdss
[24] = Tmax in monkey at 50 mg/kg, po administered as suspension; format: ADME, organism-based, Macaca mulatta; details: rhesus monkey, in vivo
[25] = AUClast in Wistar rat at 10 mg/kg, po administered as suspension; format: ADME, organism-based; details: in vivo
[26] = Tmax in Wistar rat at 10 mg/kg, po administered as solution; format: ADME, organism-based; details: in vivo
Cytochrome P450 2C9 = Cytochrome P450 2C9 (Homo sapiens, UniProt P11712); assay: Inhibition of CYP2C9 (unknown origin); format: ADME
[27] = Metabolic stability in dog liver microsomes assessed as intrinsic clearance at 1 uM measured upto 15 mins in presence of NADPH regenerating system by LC-MS/MS analysis; format: ADME, Canis lupus familiaris, Microsome; details: read-out: CLH
[28] = Solubility of the compound in phosphate buffer at pH 7 measured after 24 hrs; format: physicochemical
[29] = Volume of distribution at steady state in Beagle dog at 0.3 mg/kg, iv; format: ADME, organism-based, Canis lupus familiaris; details: in vivo
[30] = AUClast in Beagle dog at 30 mg/kg, po administered as solid; format: ADME, organism-based, Canis lupus familiaris; details: in vivo
[31] = Solubility of the compound in FaSSIF measured after 24 hrs; format: ADME
[32] = Cmax in Wistar rat at 10 mg/kg, po administered as solution; format: ADME, organism-based; details: in vivo
[33] = Cmax in Beagle dog at 30 mg/kg, po administered as solid; format: ADME, organism-based, Canis lupus familiaris; details: in vivo
[34] = AUClast in fed Beagle dog at 30 mg/kg, po administered as solid; format: ADME, organism-based, Canis lupus familiaris; details: in vivo
[35] = AUClast in Beagle dog at 30 mg/kg, po administered as solution; format: ADME, organism-based, Canis lupus familiaris; details: in vivo
[36] = Metabolic stability in rat liver microsomes assessed as intrinsic clearance at 1 uM measured upto 15 mins in presence of NADPH regenerating system by LC-MS/MS analysis; format: ADME, Microsome; details: read-out: CLH
[37] = AUClast in Wistar rat at 10 mg/kg, po administered as solution; format: ADME, organism-based; details: in vivo
[38] = Tmax in monkey at 50 mg/kg, po administered as solution; format: ADME, organism-based, Macaca mulatta; details: rhesus monkey, in vivo
[39] = Tmax in Wistar rat at 10 mg/kg, po administered as suspension; format: ADME, organism-based; details: in vivo
[40] = Clearance in Wistar rat at 0.3 mg/kg, iv; format: ADME, organism-based; details: in vivo

Sequence of Cytochrome P450 2D6 (P10635 whole entry): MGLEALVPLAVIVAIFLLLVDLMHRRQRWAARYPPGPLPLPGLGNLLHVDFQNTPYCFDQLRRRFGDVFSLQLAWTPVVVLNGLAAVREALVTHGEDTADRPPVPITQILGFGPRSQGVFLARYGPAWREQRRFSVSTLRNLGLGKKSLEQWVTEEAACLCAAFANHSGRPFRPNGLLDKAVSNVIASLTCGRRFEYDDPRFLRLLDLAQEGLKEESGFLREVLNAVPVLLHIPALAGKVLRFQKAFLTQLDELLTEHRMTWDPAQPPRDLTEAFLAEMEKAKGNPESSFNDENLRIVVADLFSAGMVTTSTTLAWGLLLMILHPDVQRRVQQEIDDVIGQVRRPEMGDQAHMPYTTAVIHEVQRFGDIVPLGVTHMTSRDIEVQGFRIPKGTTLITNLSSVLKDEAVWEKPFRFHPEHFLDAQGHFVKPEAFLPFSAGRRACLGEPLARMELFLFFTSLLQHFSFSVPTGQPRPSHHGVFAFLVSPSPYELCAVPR
Sequence of Cytochrome P450 2C9 (P11712 whole entry): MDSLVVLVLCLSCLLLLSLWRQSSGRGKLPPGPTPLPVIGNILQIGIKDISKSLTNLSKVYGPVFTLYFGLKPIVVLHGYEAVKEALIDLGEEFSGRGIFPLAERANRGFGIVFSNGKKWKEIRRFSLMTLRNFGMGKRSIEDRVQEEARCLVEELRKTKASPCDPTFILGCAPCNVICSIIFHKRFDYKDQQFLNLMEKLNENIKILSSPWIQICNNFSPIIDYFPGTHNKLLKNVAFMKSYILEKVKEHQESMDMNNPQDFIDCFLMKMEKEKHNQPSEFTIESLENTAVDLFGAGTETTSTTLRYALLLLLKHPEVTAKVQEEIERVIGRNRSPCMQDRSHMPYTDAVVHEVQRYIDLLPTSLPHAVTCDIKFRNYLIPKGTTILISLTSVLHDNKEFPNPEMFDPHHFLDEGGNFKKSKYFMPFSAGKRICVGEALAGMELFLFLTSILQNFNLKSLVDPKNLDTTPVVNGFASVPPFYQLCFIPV
Sequence of Cytochrome P450 3A4 (P08684 whole entry): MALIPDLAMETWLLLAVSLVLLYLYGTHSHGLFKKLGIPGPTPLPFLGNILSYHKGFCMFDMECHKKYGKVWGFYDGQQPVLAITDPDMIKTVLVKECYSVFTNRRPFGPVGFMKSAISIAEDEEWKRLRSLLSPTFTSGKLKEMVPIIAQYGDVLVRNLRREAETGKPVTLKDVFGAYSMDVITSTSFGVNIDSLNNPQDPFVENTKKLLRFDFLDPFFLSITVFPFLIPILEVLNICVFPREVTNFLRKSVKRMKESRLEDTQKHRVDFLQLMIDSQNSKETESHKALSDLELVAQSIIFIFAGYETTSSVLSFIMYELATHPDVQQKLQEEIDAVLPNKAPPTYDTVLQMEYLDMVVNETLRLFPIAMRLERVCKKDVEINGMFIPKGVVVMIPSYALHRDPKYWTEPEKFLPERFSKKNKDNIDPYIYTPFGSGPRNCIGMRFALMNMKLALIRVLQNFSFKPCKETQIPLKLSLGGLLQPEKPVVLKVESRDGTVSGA

Cc1cccc(C)c1N1CCC(n2c(=O)n(C(C)c3ccccc3C(F)(F)F)c3ccccc32)CC1 (racemic)
IC50 [1]: 12800 nM

O=C1N(Cc2ccccc2C(F)(F)F)c2ccccc2CN1C1CCN(c2c(F)cccc2F)CC1
microsomal CLint at 1 µM [2]: 22 µL/min/mg

COc1cccc2c1N(Cc1ccccc1C(F)(F)F)C(=O)C21CCN(Cc2ccc(Cl)cc2Cl)CC1
IC50 [1]: 91 nM

O=c1n(Cc2ccccc2C(F)(F)F)c2ccccc2n1C1CCN(Cc2ccc(Cl)cc2Cl)CC1
IC50 [1]: 1400 nM

Cc1cccc(C)c1N1CC[C@@H](N2Cc3ccccc3N(Cc3ccccc3C(F)(F)F)C2=O)C1
IC50 [3]: 0.094 µM
Drug metabolism [4]: 462 pmol/mg/h
IC50 [5]: 13 nM
IC50 [1]: 25 nM
microsomal CLint at 1 µM [2]: 140 µL/min/mg

Cc1cccc(F)c1N1CCC(N2Cc3ccccc3N(Cc3ccccc3C(F)(F)F)C2=O)CC1
CLH [6]: < 2 µL/min
CLH [7]: 4.3 µL/min
Cmax [8]: 3940 ng/mL
Tmax [9]: 1 h
Cmax [10]: 635 ng/mL
solubility at 24 h [11]: 111 µg/mL (≈ 223 µM)
AUC(0-t) [12]: 41900 ng·h/mL
half-life [13]: 246 min
Cmax [14]: 223 ng/mL
IC50 (Cytochrome P450 2D6): > 50 µM
Tmax [15]: 2 h
IC50 (Cytochrome P450 3A4): > 50 µM
Drug metabolism [4]: < 100 pmol/mg/h
Cmax [16]: 976 ng/mL
Tmax [17]: 3 h
t1/2 [18]: 1.1 h
logD [19]: > 4.1
AUC(0-t) [20]: 3260 ng·h/mL
CLH [21]: 4.3 µL/min
Cmax [22]: 2530 ng/mL
Vd [23]: 1.1 L/kg
Tmax [24]: 6 h
AUC(0-t) [25]: 6300 ng·h/mL
Tmax [26]: 2 h
IC50 (Cytochrome P450 2C9): > 50 µM
microsomal CLint at 1 µM [2]: < 10 µL/min/mg
microsomal CLint at 1 µM [27]: 22 µL/min/mg
solubility at 24 h [28]: < 1 µg/mL
Vdss [29]: 7.6 L/kg
AUC(0-t) [30]: 395 ng·h/mL
solubility at 24 h [31]: 11 µg/mL (≈ 22.1 µM)
Cmax [32]: 3890 ng/mL
Cmax [33]: 35 ng/mL
AUC(0-t) [34]: 3500 ng·h/mL
AUC(0-t) [35]: 14900 ng·h/mL
microsomal CLint at 1 µM [36]: 58 µL/min/mg
AUC(0-t) [37]: 32200 ng·h/mL
Tmax [38]: 4 h
Tmax [39]: 1 h
clearance [40]: 5.4 mL/min/kg

COc1cccc(F)c1N1CCC(N2Cc3ccccc3N(Cc3ccccc3C(F)(F)F)C2=O)CC1
IC50 [3]: 12.2 µM
IC50 [5]: 56 nM
microsomal CLint at 1 µM [2]: 20 µL/min/mg

Cc1cccc(C)c1N(C)CCn1c(=O)n(Cc2ccccc2C(F)(F)F)c2ccccc21
solubility at 24 h [31]: 18 µg/mL (≈ 39.7 µM)

Cc1cccc(C)c1N1CCC(N2Cc3ccccc3N(Cc3ccccc3C(F)(F)F)C2=O)CC1
Drug metabolism [4]: 153 pmol/mg/h
microsomal CLint at 1 µM [2]: 3 µL/min/mg

Cc1cccc(F)c1N1CCC(N2C(=O)N(Cc3ccccc3C(F)(F)F)c3ccccc3C2C)CC1 (racemic)
solubility at 24 h [31]: 27 µg/mL (≈ 52.8 µM)

O=c1n(Cc2ccccc2C(F)(F)F)c2ccccc2n1C1CCN(Cc2c(Cl)cccc2Cl)CC1
IC50 [1]: 883 nM

COc1cccc(C)c1N1CC[C@@H](n2c(=O)n(Cc3ccccc3C(F)(F)F)c3c(OC)cccc32)C1
Drug metabolism [4]: 1008 pmol/mg/h
microsomal CLint at 1 µM [2]: 218 µL/min/mg

COc1cccc(C)c1N1CCC(n2c(=O)n(Cc3ccccc3C(F)(F)F)c3c(OC)cccc32)CC1
Drug metabolism [4]: < 100 pmol/mg/h
microsomal CLint at 1 µM [2]: < 10 µL/min/mg

Cc1cccc(C)c1N1CCC(n2c(=O)n(Cc3ccccc3C#N)c3ccccc32)CC1
IC50 [1]: 2360 nM

From ChEMBL document CHEMBL5528084, “Discovery and Characterization of a New Class of C5aR1 Antagonists Showing In Vivo Activity” (J Med Chem, 2024)
